The target in this assay is T1, ChRmine (Rhodomonas lens, UniProt Z9FJ57BNO3).
T1 construct: residues 1-309 of R. lens cation channelrhodopsin 1; C-terminal PreScission site-linker-sfGFP-7xHis, cleaved; expressed in Sf9; no N-terminal tag, Met1 removed, Ala2 acetylated; residues 2-285 modeled; homotrimer in MSP1E3D1 nanodiscs
T1 sequence (Z9FJ57BNO3 2-309): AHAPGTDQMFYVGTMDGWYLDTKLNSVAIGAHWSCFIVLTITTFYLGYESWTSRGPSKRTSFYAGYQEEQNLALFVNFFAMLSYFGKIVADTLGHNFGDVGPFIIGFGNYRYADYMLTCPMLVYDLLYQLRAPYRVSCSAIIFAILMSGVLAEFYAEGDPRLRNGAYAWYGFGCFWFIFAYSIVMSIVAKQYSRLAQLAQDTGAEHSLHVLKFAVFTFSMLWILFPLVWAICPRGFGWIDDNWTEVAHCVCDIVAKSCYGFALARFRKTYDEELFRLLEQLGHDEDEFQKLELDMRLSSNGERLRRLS
As to the kind of experiment: cryo-EM structure, […] Å, lipid nanodisc. The following applies: covalent; Schiff base to K257; MSP1E3D1 nanodisc with DOPE/POPS/POPC, pH 7.5; 5 µM all-trans retinal added to expression culture; small and large nanodisc forms. The format is binding.

Take `CC1=C(/C=C/C(C)=C/C=C/C(C)=C/C=O)C(C)(C)CCC1` [all-trans retinal]: the “cryo-EM structure, 2.7 Å, lipid nanodisc” value was “(K257) on TM7 is covalently linked to a molecule of all-trans retinal through a Schiff base”.

Values taken from paper PMC9385719, “Cryo-EM structures of the channelrhodopsin ChRmine in lipid nanodiscs” (Nature Communications, 2022).
